Experimental data taken from patent publication US20200223826A1, “Glucose-6-Phosphate Dehydrogenase (G6PD)-Modulating Agents And Methods Of Treating G6PD Deficiency” (The Board of Trustees of the Leland Stanford Junior …, priority 2017, published 2020).

Legend:
[1] = target: 6-phosphogluconate dehydrogenase (6PGD) (Homo sapiens, UniProt P52209); test: Selectivity: dimerization or activity of other NAD/NADP+-dependent enzymes; type: biochemical
[2] = target: T1, A- (V68M, N126D) G6PD (Homo sapiens, UniProt P11413, N126D/V68M); test: Native gel electrophoresis, dimerization of variant
T1 construct: His (pET-28a) (N, cleaved yes); made in house; host or cells: E. coli C43 (DE3)
Procedure: (§1) 200 ng of recombinant enzymes were incubated with the compound (varying in assays) for 10 minutes at room temperature. To prevent streaking and artifacts in native PAGE gel, the samples in a native state (no boiling of sample and no reducing agent in sample buffer) were electrophoresed by […]. Cross-linking assay was initiated by incubating 500 ng of recombinant enzymes in PBS with 0.1% of glutaraldehyde and different concentrations of NADP^+ (0, 10, 100, 1000 μM) or MgCl2 (0, 1, 10, 100 mM). The mixture was incubated for 10 minutes at room temperature, which was followed by the addition of 100 mM Tris (pH 8.0) at a final concentration to terminate the reaction. The samples were electrophoresed as described above.

[3] = target: T2, Kaiping (R463H) G6PD (Homo sapiens, UniProt P11413, R463H); test: as above
T2 construct: His (pET-28a) (N, cleaved yes); made in house; host or cells: E. coli C43 (DE3)
Procedure: as §1

[4] = target: T3, Mediterranean (S188F) G6PD (Homo sapiens, UniProt P11413, S188F); test: as above
T3 construct: His (pET-28a) (N, cleaved yes); made in house; host or cells: E. coli C43 (DE3)
Procedure: as §1

[5] = tested on: lymphocytes carrying the Canton variant; test: Viability of lymphocytes; type: cell-based, human; details: treatment with AG1 for 24 hours
Procedure: Cell viability was measured using a Cell-Counting Kit-8 (CCK-8, Dojindo), utilizing WST-8 [2-(2-methoxy-4-nitrophenyl)-3-(4-nitrophenyl)-5-(2,4-disulfophenyl)-2H-tetrazolium monosodium salt, according to the manufacturer's instructions. Cells were subjected to serum starvation for 48 hours before measurement. Cells in 100 μL of medium per well were treated with 10 μL of CCK-8 solution and incubated for 2 hours at 37° C. The absorbance was read at 450 nm. Viability of lymphocytes was measured by staining with a 0.4% solution of trypan blue in buffered isotonic salt solution (pH 7.2). The viability was calculated as the number of viable cells (non-stained by the dye) divided by the total number of cells within the grids on the hemacytometer. Cells were treated with 1 μM of the compound 24 hours before the measurement.

[6] = tested on: G6PD in zebrafish embryo lysates; test: G6PD activity in lysates of pooled zebrafish embryos; type: in vivo; details: lysates of pooled AG1-treated embryos
Procedure: Embryos were dechorinated with pronase at 24 hours post fertilization (hpf) and treated with 50 μg/ml of chloroquine and/or AG1 by directly adding the compounds to the well. For ROS measurements, embryos were incubated with compounds for 2 hours, and then the ROS detecting reagent (CM-H2DCFDA) was added at a final concentration of 500 ng/ml to the well for a total treatment time of 5 hours. One embryo was placed to each well of a black, opaque 96-well plate. The florescence was analyzed with excitation/emission at 485/525 nm. After ROS assays, embryos at about 32 hpf were pooled and lysed in buffer containing 50 mM Tris (pH 7.4), 150 mM NaCl, 1 mM EDTA, 0.1% NP-40, and protease inhibitor cocktail, which was followed by three cycles of freeze and thawing in liquid nitrogen. The lysate was centrifuged at 14,000 rpm at 4° C. for 15 minutes. Total protein concentration in the supernatants (total lysate) was determined by Bradford method. 50 μg of total lysate was loaded onto 10% SDS-PAGE gels and the protein level was examined by Western blot using anti-G6PD antibody (Abcam (G6PD: AB87230)). 10 μg of total lysate was used for enzymatic assay. 50 μg of the lysate was used to measure NADPH levels using a NADPH quantification kit (Biovision), according to the manufacturer's instructions.

[7] = target: T4, G6PD in human erythrocytes (Homo sapiens, UniProt P11413); test: Erythrocyte refrigerated storage assay, G6PD activity; type: cell-based; details: AG1 1 μM
T4 construct: host or cells: human erythrocytes
Procedure: De-identified blood samples were obtained from the Stanford Blood Center. Erythrocytes were collected by filtering the samples through a cellulose slurry to remove platelets and leukocytes and then washed with saline. G6PD activity was measured (Beutler E. Red cell metabolism: A manual of biochemical methods (3rd edition). Grune & Stratton (1984)). […] A 5% erythrocyte suspension was pre-incubated with 1-5 μM AG1 at 4° C. overnight, which was followed by treatment with (or without) either 1 mM chloroquine (CQ) or 1 mM diamide for 3-4 hours at 37° C. (for hemolysis assay with chloroquine, the mixture was incubated under light). Then centrifugation at 1,000 rpm for 5 minutes was followed. Hemoglobin release in the supernatant was monitored by measuring absorbance at 540 nm. […] After wash, the samples were lysed with 0.1% Triton X-100 (final concentration), and the florescence was analyzed with excitation/emission at 485/525 nm. GSH measurement was determined using a Cayman glutathione assay kit (Cayman Chemicals, 703002). […] The absorbance was read at 412 nm. For storage assay, a 5% erythrocyte suspension was stored at 4° C. with and without 1 μM AG1, and hemolysis and G6PD activity were monitored every week for 28 days to examine whether AG1 improves preservation of erythrocytes over time. Protein leakage was also examined by measuring the absorbance of the supernatant of samples at 280 nm. […]

T2 sequence (P11413 whole entry R463H): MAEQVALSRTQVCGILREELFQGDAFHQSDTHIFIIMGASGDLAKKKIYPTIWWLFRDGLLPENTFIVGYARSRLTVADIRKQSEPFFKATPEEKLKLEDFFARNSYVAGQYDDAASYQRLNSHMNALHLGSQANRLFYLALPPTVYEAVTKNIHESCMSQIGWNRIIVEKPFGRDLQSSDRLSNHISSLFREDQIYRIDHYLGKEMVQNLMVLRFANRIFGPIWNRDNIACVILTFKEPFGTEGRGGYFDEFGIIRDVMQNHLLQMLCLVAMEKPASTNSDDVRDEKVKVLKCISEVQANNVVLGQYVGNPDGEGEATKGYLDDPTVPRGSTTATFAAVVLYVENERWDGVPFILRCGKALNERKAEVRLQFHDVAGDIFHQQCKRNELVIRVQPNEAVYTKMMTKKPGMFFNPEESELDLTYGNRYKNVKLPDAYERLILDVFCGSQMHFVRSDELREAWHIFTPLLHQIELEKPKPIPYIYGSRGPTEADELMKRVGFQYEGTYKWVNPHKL
T1 sequence (P11413 whole entry V68M/N126D): as the sequence (P11413 whole entry R463H) above, with V68M, N126D, H463R counted along it
T4 sequence (P11413 2-515 limits assumed): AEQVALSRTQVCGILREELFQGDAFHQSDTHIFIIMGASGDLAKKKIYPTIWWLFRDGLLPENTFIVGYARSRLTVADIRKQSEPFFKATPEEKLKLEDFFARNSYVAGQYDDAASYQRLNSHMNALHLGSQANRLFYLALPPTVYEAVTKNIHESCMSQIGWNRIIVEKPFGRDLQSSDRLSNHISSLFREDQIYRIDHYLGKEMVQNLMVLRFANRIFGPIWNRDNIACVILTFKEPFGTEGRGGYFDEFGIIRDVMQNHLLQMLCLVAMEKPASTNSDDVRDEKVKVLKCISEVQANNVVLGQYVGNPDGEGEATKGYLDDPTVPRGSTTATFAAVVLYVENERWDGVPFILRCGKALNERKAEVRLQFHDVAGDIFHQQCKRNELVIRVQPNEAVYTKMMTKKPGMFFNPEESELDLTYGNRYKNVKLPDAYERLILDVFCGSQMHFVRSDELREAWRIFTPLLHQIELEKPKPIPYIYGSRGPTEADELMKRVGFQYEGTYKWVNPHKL
T3 sequence (P11413 whole entry S188F): as the sequence (P11413 whole entry R463H) above, with S188F, H463R counted along it
Chain of 6-phosphogluconate dehydrogenase (6PGD) (P52209 whole entry): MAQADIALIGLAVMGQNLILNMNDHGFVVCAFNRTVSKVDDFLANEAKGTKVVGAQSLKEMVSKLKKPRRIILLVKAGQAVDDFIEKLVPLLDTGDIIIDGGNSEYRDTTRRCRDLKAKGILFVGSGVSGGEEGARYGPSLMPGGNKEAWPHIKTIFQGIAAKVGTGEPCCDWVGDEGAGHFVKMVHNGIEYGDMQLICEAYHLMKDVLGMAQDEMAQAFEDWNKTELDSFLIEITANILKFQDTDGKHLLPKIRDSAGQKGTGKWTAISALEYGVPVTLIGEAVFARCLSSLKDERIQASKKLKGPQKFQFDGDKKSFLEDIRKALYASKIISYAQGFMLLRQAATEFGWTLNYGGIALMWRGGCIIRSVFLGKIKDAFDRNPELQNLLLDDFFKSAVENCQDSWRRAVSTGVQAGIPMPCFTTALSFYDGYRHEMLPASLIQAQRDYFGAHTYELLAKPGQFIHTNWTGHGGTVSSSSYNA

**Q.** Which results are given for `SCCNCCc1c[nH]c2ccccc12` [AG1, 2-[2-(1H-indol-3-yl)ethylamino]ethanethiol]?
**A.** effect on dimerization or activity [1]: no effect; dimerization of variant [2]: promoted their dimerization; dimerization of variant [3]: promoted their dimerization; dimerization of variant [4]: promoted their dimerization; viability [5]: improved; G6PD activity [6]: slight increase; G6PD activity [7]: increased
